# From patent US8785184B2, “Differentiation of human embryonic stem cells” (Janssen Biotech, Inc., priority 2009, dated 2014)
# B1: activin A (protein, UniProt P08476 311-426, looked up)
# Inhibin beta A chain: GLECDGKVNICCKKQFFVSFKDIGWNDWIIAPSGYHANYCEGECPSHIAGTSGSSLSFHSTVINHYRMRGHSPFANLKSCCVPTKLRPMSMLYYDDGQNIIKKDIQNMIVEECGCS
# modifications: Inhibin beta A chain
# notes: TGFβ receptor agonist (R&D Systems)
# B2: GDF-11 (protein, UniProt O95390 299-407, looked up)
# Growth/differentiation factor …: NLGLDCDEHSSESRCCRYPLTVDFEAFGWDWIIAPKRYKANYCSGQCEYMFMQKYPHTHLVQQANPRGSAGPCCTPTKMSPINMLYFNDKQQIIYGKIPGMVVDRCGCS
# notes: TGFβ receptor agonist
# B3: activin B (protein, UniProt P09529 293-407, looked up)
# Inhibin beta B chain: GLECDGRTNLCCRQQFFIDFRLIGWNDWIIAPTGYYGNYCEGSCPAYLAGVPGSASSFHTAVVNQYRMRGLNPGTVNSCCIPTKLSTMSMLYFDDEYNIVKRDVPNMIVEECGCA
# modifications: Inhibin beta B chain
# notes: TGFβ receptor agonist
# B4: TGFβ2 (protein, UniProt P61812 303-414, looked up)
# Transforming growth factor …: ALDAAYCFRNVQDNCCLRPLYIDFKRDLGWKWIHEPKGYNANFCAGACPYLWSSDTQHSRVLSLYNTINPEASASPCCVSQDLEPLTILYYIGKTPKIEQLSNMIVKSCKCS
# notes: TGFβ receptor agonist
# Experiments:
# [1] = system: human embryonic stem cell line H1; test: Real-time PCR of pancreatic markers at stage 3 day 4 (Example 1); type: cell-based
# Method: Cultures were sampled in duplicate on stage 3 day 4, and analyzed for the expression of pancreatic markers using real-time PCR.
# (§1) Cells of the human embryonic stem cell line H1 were cultured on MATRIGEL-coated plates (1:30 dilution), and differentiated into pancreatic endocrine precursor cells using the following protocol: • a.
# (§2) Cultures were sampled in duplicate on stage 3 day 4, and analyzed for expression of pancreatic markers using real-time PCR. Cultures also were fixed in parallel for immunofluorescence analysis.
# [2] = system: human embryonic stem cell line H1; test: Immunofluorescence analysis of cultures at stage 3 day 4 (Example 1); type: cell-based
# Method: as §1, §2
# [3] = system: human embryonic stem cells line H1; settings: stage 4 day 3
# Method: (§3) Briefly, cells of the human embryonic stem cells line H1 were cultured on […]™ coated dishes (1:30 dilution) with RPMI medium+2% BSA+100 ng/ml activin A+20 ng/ml WNT-3a+8 ng/ml of bFGF for one day followed by treatment with RPMI media+2% BSA+100 ng/ml activin A+8 ng/ml of bFGF for an additional two days (Stage 1), then • a. DMEM/F12+2% BSA+50 ng/ml FGF7 for three days (Stage 2), then • b. DMEM-High glucose+1% B27+50 ng/ml FGF7+0.25 μM Cyclopamine-KAAD+2 μM Retinoic acid (RA)+100 ng/ml of Noggin+20 ng/ml Activin A for four days (Stage 3), then • c. DMEM-High glucose+1% B27+100 ng/ml Noggin+1 μM ALK5 inhibitor II for three days (Stage 4), or • d. DMEM-High glucose+1% B27 only for three days (Stage 4).
# Pancreatic endocrine precursor cells express NGN3.
# [4] = system: human embryonic stem cells line H1; settings: stage 4; immunocytochemistry (FIG. 6)
# Method: as §3
# [5] = 1 μM ALK5 inhibitor II + 100 ng/ml Noggin vs basal medium (FIG. 5)
# [6] = 1 μM ALK5 inhibitor II + 100 ng/ml Noggin vs basal medium (FIG. 5 panel b)
# [7] = replacement of activin A in treatment 2, four days, stage 3 day 4 (FIG. 4)
molecule,measurement,setting,value
"Cc1cccc(-c2[nH]ncc2-c2ccc3ncccc3n2)n1 [Alk5 inhibitor II, ALK5 inhibitor II]",PDX1 expression,"[1]; stage 3 day 4, 1 μM ALK5 inhibitor II added to treatment 1",No significant impact
same,level of expression of NKX6.1,"[1]; stage 3 day 4, 1 μM ALK5 inhibitor II added to treatment 1, compared with treatment 1",decrease
same,number of NGN3 expressing cells,"[2]; 1 μM ALK5 inhibitor II added to treatment 1 (Table 1, FIG. 2 panel f)",significantly increased
same,NGN3 expression,[3]; [5],significant increase
same,expression of NEUROD,[3]; [5],up regulation
same,expression of NKX2.2,[3]; [5],up regulation
same,expression of PAX4,[3]; [5],up regulation
same,expression of PAX6,[3]; [5],up regulation
same,expression of PTF1 alpha,[3]; [5],increase
same,expression of NKX6.1,[3]; [6],did not appear to affect
same,expression of PDX1,[3]; [6],did not appear to affect
same,number of cells positive for NGN3 protein,[4],increase
GDF-8,PDX1 expression,[1]; [7],No significant impact
same,expression of NGN3,[1]; [7],down-regulation
same,expression of NKX6.1,[1]; [7],increase
B1,NGN3 expression,"[1]; stage 3 day 4, 20 or 50 ng/ml activin A with FGF7, cyclopamine-KAAD, retinoic acid, Noggin (FIG. 1)",down-regulation
same,NKX6.1 expression,"[1]; stage 3 day 4, 20 or 50 ng/ml activin A with FGF7, cyclopamine-KAAD, retinoic acid, Noggin, compared to cells receiving no activin A (FIG. 1)",dramatic increase
same,expression of NGN3,[2]; immunofluorescence (FIG. 2),blocked the expression
same,number of NKX6.1 expressing cells,"[2]; immunofluorescence (FIG. 2), 20 ng/ml activin A added to treatment 1",significantly increased
B2,PDX1 expression,[1]; [7],No significant impact
same,expression of NGN3,[1]; [7],down-regulation
same,expression of NKX6.1,[1]; [7],increase
B3,PDX1 expression,[1]; [7],No significant impact
same,expression of NGN3,[1]; [7],down-regulation
same,expression of NKX6.1,[1]; [7],increase
B4,PDX1 expression,[1]; [7],No significant impact
same,expression of NGN3,[1]; [7],down-regulation
same,expression of NKX6.1,[1]; [7],increase
